Measured values: patent US12440496B2, “Natriuretic peptide receptor a agonists useful for the treatment of cardiometabolic diseases, kidney disease and diabetes” (Merck Sharp & Dohme LLC, priority 2019, dated 2025)
Where a name gives a salt, the structure may show the parent alone.

Each molecule was assayed against T1, hNPRA (Homo sapiens, UniProt P16066) (assay: NPRA Functional Cell Assay (cGMP HTRF, NPRA HEK JumpIn stable cells)). Conditions: cGMP production, 1 hour at 37° C., 10-point dose response.
T1 construct: expressed in transfected cells
T1 sequence (P16066 33-1061): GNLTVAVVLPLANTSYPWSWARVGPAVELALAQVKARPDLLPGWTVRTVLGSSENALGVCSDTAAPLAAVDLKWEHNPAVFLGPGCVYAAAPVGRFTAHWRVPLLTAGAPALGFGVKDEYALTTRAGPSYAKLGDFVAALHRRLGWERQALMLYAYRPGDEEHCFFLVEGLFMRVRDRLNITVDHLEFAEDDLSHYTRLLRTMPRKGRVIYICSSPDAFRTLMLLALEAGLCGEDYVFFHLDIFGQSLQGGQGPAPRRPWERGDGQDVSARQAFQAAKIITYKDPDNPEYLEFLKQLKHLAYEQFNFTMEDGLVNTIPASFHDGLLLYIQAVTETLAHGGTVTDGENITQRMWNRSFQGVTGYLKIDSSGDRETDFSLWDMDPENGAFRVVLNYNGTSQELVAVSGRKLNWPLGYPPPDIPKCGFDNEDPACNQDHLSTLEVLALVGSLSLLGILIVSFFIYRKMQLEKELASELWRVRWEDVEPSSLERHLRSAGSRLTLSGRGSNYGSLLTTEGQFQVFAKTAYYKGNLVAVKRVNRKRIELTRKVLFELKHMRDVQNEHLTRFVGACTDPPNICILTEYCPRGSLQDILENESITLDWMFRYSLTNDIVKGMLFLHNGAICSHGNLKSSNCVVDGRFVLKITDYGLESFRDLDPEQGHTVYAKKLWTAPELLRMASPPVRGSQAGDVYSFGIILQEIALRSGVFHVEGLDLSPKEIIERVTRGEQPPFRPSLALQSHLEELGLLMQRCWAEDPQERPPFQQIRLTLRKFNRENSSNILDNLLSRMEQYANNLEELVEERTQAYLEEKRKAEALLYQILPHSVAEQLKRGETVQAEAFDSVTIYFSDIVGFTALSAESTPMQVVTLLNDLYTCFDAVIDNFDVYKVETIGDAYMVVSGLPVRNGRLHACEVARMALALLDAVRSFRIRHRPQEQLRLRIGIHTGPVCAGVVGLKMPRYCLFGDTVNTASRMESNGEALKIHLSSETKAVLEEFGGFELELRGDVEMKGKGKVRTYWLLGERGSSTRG
Type: cell-based
Method in brief: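 cGMP HTRF read-out after 1 hour compound treatment at 37° C. of human NPRA-expressing HEK JumpIn cells, 1500 cells/well, in buffer with phosphodiesterase inhibitors IBMX and RO20 (100 uM each). Signal converted to [cGMP] by calibration curve; EC50s fitted by 4-parameter logistic; 50 nM h-ANP as positive response.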

SMILES	EC50 [nM]
CC(C)(C)[C@H]1CCc2nc3sc(C(=O)N[C@H](CCN4CCC(O)CC4)c4ccc(Oc5ccc(O)cc5)nc4)nc3cc2C1 (racemic) [Example 194, ammonium; 4-[[5-[rac-(1R)-3-(4-hydroxy-1-piperidyl)-1-[[rac-(7S)-7-tert-butyl-5,6,7,8-tetrahydrothiazolo[5,4-b]quinoline-2-carbonyl]amino]propyl]-2-pyridyl]oxy]phenolate]	1500
CC(C)(C)[C@H]1CCc2nc3sc(C(=O)N[C@H](CCN4CCC(O)CC4)c4ccc(-c5ccc(=O)[nH]c5)nc4)nc3cc2C1 (racemic) [Example 195, rac-(7S)-7-tert-butyl-N-[rac-(1R)-3-(4-hydroxy-1-piperidyl)-1-[6-(6-oxo-1H-pyridin-3-yl)-3-pyridyl]propyl]-5,6,7,8-tetrahydrothiazolo[5,4-b]quinoline-2-carboxamide]	126
CC(C)(C)[C@H]1CCc2nc3sc(C(=O)N[C@H](CCN4CCC(O)CC4)c4ccc(-c5cn[nH]c5)nc4)nc3cc2C1 (racemic) [Example 196, rac-(7S)-7-tert-butyl-N-[rac-(1R)-3-(4-hydroxy-1-piperidyl)-1-[6-(1H-pyrazol-4-yl)-3-pyridyl]propyl]-5,6,7,8-tetrahydrothiazolo[5,4-b]quinoline-2-carboxamide]	303
CC(C)(C)[C@H]1CCc2nc3sc(C(=O)N[C@H](CCN4CCC(O)CC4)c4ccc(-c5csc(C(=O)O)c5)nc4)nc3cc2C1 (racemic) [Example 197, 4-[5-[rac-(1R)-3-(4-hydroxypiperidin-1-ium-1-yl)-1-[[rac-(7S)-7-tert-butyl-5,6,7,8-tetrahydrothiazolo[5,4-b]quinoline-2-carbonyl]amino]propyl]-2-pyridyl]thiophene-2-carboxylic acid; 2,2,2-trifluoroacetate]	560
CC(C)(C)[C@H]1CCc2nc3sc(C(=O)N[C@H](CCN4CCC(N)CC4)c4ccc(-c5cnc(O)c(F)c5)cc4)nc3cc2C1 (racemic) [Example 198, [1-[rac-(3R)-3-[4-(5-fluoro-6-hydroxy-3-pyridyl)phenyl]-3-[[rac-(7S)-7-tert-butyl-5,6,7,8-tetrahydrothiazolo[5,4-b]quinoline-2-carbonyl]amino]propyl]-4-piperidyl]ammonium; formate]	220
CC(C)(C)[C@H]1CCc2nc3sc(C(=O)N[C@H](CCN4CCC(O)(CN)CC4)c4ccc(-c5cnc(O)c(F)c5)cc4)nc3cc2C1 (racemic) [Example 199, [4-hydroxy-1-[rac-(3R)-3-[4-(5-fluoro-6-hydroxy-3-pyridyl)phenyl]-3-[[rac-(7S)-7-tert-butyl-5,6,7,8-tetrahydrothiazolo[5,4-b]quinoline-2-carbonyl]amino]propyl]-4-piperidyl]methylammonium; formate]	222
CN(C)CC1(O)CCN(CC[C@@H](NC(=O)c2nc3cc4c(nc3s2)CC[C@H](C(C)(C)C)C4)c2ccc(-c3cnc(O)c(F)c3)cc2)CC1 (racemic) [Example 200, rac-(7S)-7-tert-butyl-N-[rac-(1R)-3-[4-[(dimethylamino)methyl]-4-hydroxy-piperidin-1-ium-1-yl]-1-[4-(5-fluoro-6-hydroxy-3-pyridyl)phenyl]propyl]-5,6,7,8-tetrahydrothiazolo[5,4-b]quinoline-2-carboxamide; formate]	243
CC(C)(C)[C@H]1CCc2nc3sc(C(=O)N[C@H](CCN4CC[C@@H](C(=O)O)[C@@H](F)C4)c4ccc(-c5cnc(O)c(F)c5)cc4)nc3cc2C1 (racemic) [Example 201, rac-(3R,4S)-3-fluoro-1-[rac-(3R)-3-[4-(5-fluoro-6-hydroxy-3-pyridyl)phenyl]-3-[[rac-(7S)-7-tert-butyl-5,6,7,8-tetrahydrothiazolo[5,4-b]quinoline-2-carbonyl]amino]propyl]piperidin-1-ium-4-carboxylic acid; formate]	447
CCN(CC)CC[C@@H](NC(=O)c1nc2cc3c(nc2s1)CC[C@H](C(C)(C)C)C3)c1ccc(-c2cnc(O)c(F)c2)cc1 (racemic) [Example 202, diethyl-[rac-(3R)-3-[4-(5-fluoro-6-hydroxy-3-pyridyl)phenyl]-3-[[rac-(7S)-7-tert-butyl-5,6,7,8-tetrahydrothiazolo[5,4-b]quinoline-2-carbonyl]amino]propyl]ammonium; formate]	514
CC(C)(C)[C@H]1CCc2nc3sc(C(=O)N[C@H](CCN4CC[C@H](C(=O)O)[C@@H](F)C4)c4ccc(-c5cnc(O)c(F)c5)cc4)nc3cc2C1 (racemic) [Example 203, rac-(3R,4R)-3-fluoro-1-[rac-(3R)-3-[4-(5-fluoro-6-hydroxy-3-pyridyl)phenyl]-3-[[rac-(7S)-7-tert-butyl-5,6,7,8-tetrahydrothiazolo[5,4-b]quinoline-2-carbonyl]amino]propyl]piperidin-1-ium-4-carboxylic acid; formate]	1190
CC(C)(C)[C@H]1CCc2nc3sc(C(=O)N[C@H](CCN4CCC5OCCCC5C4)c4ccc(-c5cnc(O)c(F)c5)cc4)nc3cc2C1 (mixture of isomers) [Example 204, rac-(7S)-7-tert-butyl-N-[rac-(1R)-3-(3,4,4a,5,6,7,8,8a-octahydro-2H-pyrano[3,2-c]pyridin-6-ium-6-yl)-1-[4-(5-fluoro-6-hydroxy-3-pyridyl)phenyl]propyl]-5,6,7,8-tetrahydrothiazolo[5,4-b]quinoline-2-carboxamide; formate]	1290
CN(C)S(=O)(=O)Nc1ccc([C@@H](CCN2CCCOCC2)NC(=O)c2nc3cc4c(nc3s2)CC[C@H](C(C)(C)C)C4)cn1 (racemic) [Example 205, rac-(7S)-7-tert-butyl-N-[rac-(1R)-1-[6-(dimethylsulfamoylamino)-3-pyridyl]-3-(1,4-oxazepan-4-ium-4-yl)propyl]-5,6,7,8-tetrahydrothiazolo[5,4-b]quinoline-2-carboxamide; 2,2,2-trifluoroacetate]	563
CN(CCO)CC[C@@H](NC(=O)c1nc2cc3c(nc2s1)CC[C@H](C(C)(C)C)C3)c1ccc(NS(=O)(=O)N(C)C)nc1 (racemic) [Example 206, 2-hydroxyethyl-methyl-[rac-(3R)-3-[6-(dimethylsulfamoylamino)-3-pyridyl]-3-[[rac-(7S)-7-tert-butyl-5,6,7,8-tetrahydrothiazolo[5,4-b]quinoline-2-carbonyl]amino]propyl]ammonium; 2,2,2-trifluoroacetate]	674
O=C(O)C(F)(F)F.[2H]C([2H])([2H])N(CC[C@@H](NC(=O)c1nc2cc3c(nc2s1)CC[C@H](C(C)(C)C)C3)c1ccc(NS(=O)(=O)N(C)C)nc1)C([2H])([2H])[2H] (racemic) [Example 207, [rac-(3R)-3-[6-(dimethylsulfamoylamino)-3-pyridyl]-3-[[rac-(7S)-7-tert-butyl-5,6,7,8-tetrahydrothiazolo[5,4-b]quinoline-2-carbonyl]amino]propyl]-bis(trideuteriomethyl)ammonium; 2,2,2-trifluoroacetate]	679
CN(C)S(=O)(=O)Nc1ccc([C@@H](CCN2CC=CCC2)NC(=O)c2nc3cc4c(nc3s2)CC[C@H](C(C)(C)C)C4)cn1 (racemic) [Example 208, rac-(7S)-7-tert-butyl-N-[rac-(1R)-1-[6-(dimethylsulfamoylamino)-3-pyridyl]-3-(1,2,3,6-tetrahydropyridin-1-ium-1-yl)propyl]-5,6,7,8-tetrahydrothiazolo[5,4-b]quinoline-2-carboxamide; 2,2,2-trifluoroacetate]	712
CN(CC[C@@H](NC(=O)c1nc2cc3c(nc2s1)CC[C@H](C(C)(C)C)C3)c1ccc(NS(=O)(=O)N(C)C)nc1)CC1(O)CC1 (racemic) [Example 209, (1-hydroxycyclopropyl)methyl-methyl-[rac-(3R)-3-[6-(dimethylsulfamoylamino)-3-pyridyl]-3-[[rac-(7S)-7-tert-butyl-5,6,7,8-tetrahydrothiazolo[5,4-b]quinoline-2-carbonyl]amino]propyl]ammonium; 2,2,2-trifluoroacetate]	735
COCCN(C)CC[C@@H](NC(=O)c1nc2cc3c(nc2s1)CC[C@H](C(C)(C)C)C3)c1ccc(NS(=O)(=O)N(C)C)nc1 (racemic) [Example 210, 2-methoxyethyl-methyl-[rac-(3R)-3-[6-(dimethylsulfamoylamino)-3-pyridyl]-3-[rac-(7S)-7-tert-butyl-5,6,7,8-tetrahydrothiazolo[5,4-b]quinoline-2-carbonyl]amino]propyl]ammonium; 2,2,2-trifluoroacetate]	764
